According to ChEMBL document CHEMBL4038300, “Return of D4 Dopamine Receptor Antagonists in Drug Discovery” (J Med Chem, 2017):

Assays:
[1] = molecular target: Glutamate [NMDA] receptor (Homo sapiens) (UniProt Q05586+Q12879+Q13224+O15399+O60391+Q14957+Q8TCU5); experiment: Inhibition of NMDA receptor (unknown origin); conditions: concentration not given here
[2] = molecular target: Histamine H3 receptor (Homo sapiens) (UniProt Q9Y5N1); experiment: Inhibition of histamine H3 receptor (unknown origin); conditions: concentration not given here
Chain of Histamine H3 receptor (Homo sapiens) (Q9Y5N1 whole entry): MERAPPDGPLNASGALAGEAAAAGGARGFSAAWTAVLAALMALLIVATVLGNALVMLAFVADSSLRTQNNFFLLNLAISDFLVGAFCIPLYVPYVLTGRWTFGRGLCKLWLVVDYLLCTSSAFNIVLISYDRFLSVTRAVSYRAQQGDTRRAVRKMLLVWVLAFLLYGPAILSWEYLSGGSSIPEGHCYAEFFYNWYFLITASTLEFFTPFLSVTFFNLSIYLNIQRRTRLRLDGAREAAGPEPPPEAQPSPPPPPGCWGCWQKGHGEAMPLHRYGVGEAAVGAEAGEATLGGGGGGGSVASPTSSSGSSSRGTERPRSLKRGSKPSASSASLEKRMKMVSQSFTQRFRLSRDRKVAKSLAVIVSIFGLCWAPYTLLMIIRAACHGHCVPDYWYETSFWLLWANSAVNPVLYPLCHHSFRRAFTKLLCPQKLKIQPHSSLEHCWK

[3] = Inhibition of human dopamine D4.7 receptor
[4] = molecular target: D(1B) dopamine receptor (Homo sapiens, UniProt P21918); experiment: Inhibition of dopamine D5 receptor (unknown origin) at 10 uM
Chain of D(1B) dopamine receptor (P21918 whole entry): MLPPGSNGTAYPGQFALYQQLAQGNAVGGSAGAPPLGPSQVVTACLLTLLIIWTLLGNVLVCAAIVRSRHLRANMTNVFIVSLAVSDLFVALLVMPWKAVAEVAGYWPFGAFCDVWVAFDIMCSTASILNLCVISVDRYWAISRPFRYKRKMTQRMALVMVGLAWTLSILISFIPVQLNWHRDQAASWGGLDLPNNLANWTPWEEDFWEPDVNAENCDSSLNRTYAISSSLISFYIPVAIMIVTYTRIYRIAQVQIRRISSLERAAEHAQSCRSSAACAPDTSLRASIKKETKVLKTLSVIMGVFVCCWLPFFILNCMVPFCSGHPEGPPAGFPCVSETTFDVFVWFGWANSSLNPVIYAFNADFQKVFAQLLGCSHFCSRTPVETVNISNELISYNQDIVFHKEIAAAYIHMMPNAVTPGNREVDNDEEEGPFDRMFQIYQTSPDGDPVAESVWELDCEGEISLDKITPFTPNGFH

[5] = molecular target: Adrenergic receptor alpha-2 (Homo sapiens) (UniProt P08913+P18825+P18089); experiment: Inhibition of alpha2 adrenergic receptor (unknown origin); conditions: concentration not given here
[6] = molecular target: 5-hydroxytryptamine receptor 2A (Homo sapiens, UniProt P28223); experiment: Inhibition of serotonin 5-HT2 receptor (unknown origin); conditions: concentration not given here
Chain of 5-hydroxytryptamine receptor 2A (P28223 whole entry): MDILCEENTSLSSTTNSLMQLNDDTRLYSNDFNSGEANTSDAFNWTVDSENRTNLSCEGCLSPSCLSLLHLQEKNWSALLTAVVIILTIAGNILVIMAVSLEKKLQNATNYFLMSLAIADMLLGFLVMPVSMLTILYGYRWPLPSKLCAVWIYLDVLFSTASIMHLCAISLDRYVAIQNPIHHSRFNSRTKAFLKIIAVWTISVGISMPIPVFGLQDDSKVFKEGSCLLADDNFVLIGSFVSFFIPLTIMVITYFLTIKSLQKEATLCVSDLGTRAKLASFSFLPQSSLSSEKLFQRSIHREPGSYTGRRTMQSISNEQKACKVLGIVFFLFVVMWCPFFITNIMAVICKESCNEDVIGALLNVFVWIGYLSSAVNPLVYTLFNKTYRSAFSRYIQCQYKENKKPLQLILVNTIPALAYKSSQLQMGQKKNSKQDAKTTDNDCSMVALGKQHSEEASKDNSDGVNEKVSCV

[7] = species: Homo sapiens; experiment: Inhibition of beta-adrenergic receptor (unknown origin); conditions: concentration not given here
[8] = molecular target: Adrenergic receptor alpha-1 (Homo sapiens) (UniProt P35348+P25100+P35368); experiment: Inhibition of alpha1 adrenergic receptor (unknown origin); conditions: concentration not given here
[9] = molecular target: T1, D(3) dopamine receptor (Homo sapiens, UniProt P35462); experiment: Inhibition of dopamine D3 receptor (unknown origin) at 10 uM
T1 sequence (P35462 whole entry): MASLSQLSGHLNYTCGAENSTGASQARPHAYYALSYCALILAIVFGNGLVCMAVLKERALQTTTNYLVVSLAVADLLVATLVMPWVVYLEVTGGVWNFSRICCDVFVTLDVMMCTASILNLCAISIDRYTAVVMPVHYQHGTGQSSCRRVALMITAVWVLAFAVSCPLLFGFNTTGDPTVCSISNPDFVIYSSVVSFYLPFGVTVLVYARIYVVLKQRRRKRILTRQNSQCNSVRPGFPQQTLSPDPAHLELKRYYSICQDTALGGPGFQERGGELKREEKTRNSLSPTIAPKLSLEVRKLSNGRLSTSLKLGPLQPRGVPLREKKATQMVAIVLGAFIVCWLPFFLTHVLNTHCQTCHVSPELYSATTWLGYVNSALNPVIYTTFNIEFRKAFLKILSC

[10] = Inhibition of human dopamine D4.4 receptor
[11] = molecular target: 5-hydroxytryptamine receptor 2C (Homo sapiens) (UniProt P28335); experiment: Inhibition of serotonin 5-HT2C receptor (unknown origin); conditions: concentration not given here
Chain of 5-hydroxytryptamine receptor 2C (Homo sapiens) (P28335 whole entry): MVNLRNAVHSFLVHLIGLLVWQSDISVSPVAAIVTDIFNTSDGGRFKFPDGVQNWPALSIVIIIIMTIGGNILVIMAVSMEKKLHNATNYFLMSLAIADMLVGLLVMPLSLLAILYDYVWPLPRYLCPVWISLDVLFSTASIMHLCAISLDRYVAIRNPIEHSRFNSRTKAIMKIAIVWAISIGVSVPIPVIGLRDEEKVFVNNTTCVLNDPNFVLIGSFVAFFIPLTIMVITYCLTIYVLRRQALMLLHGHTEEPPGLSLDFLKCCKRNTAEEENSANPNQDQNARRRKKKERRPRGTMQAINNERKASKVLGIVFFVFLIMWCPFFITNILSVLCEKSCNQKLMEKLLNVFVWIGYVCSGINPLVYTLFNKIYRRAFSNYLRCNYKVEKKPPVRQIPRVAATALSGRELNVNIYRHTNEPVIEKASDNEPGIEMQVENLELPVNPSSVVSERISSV

[12] = molecular target: Neuropeptide Y receptor type 1 (Homo sapiens) (UniProt P25929); experiment: Inhibition of NPY1 receptor (unknown origin); conditions: concentration not given here
Chain of Neuropeptide Y receptor type 1 (Homo sapiens) (P25929 whole entry): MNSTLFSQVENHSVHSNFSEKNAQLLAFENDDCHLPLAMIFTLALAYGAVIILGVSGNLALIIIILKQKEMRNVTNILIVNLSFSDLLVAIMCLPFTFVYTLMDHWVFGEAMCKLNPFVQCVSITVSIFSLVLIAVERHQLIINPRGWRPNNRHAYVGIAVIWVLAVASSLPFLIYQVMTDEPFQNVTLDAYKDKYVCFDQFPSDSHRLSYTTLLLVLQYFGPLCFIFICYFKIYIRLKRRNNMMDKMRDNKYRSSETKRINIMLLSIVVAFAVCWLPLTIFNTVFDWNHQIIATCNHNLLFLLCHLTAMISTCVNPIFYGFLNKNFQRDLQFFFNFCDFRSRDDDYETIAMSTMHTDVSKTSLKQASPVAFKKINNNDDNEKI

[13] = molecular target: Histamine H1 receptor (Homo sapiens, UniProt P35367); experiment: Inhibition of histamine H1 receptor (unknown origin); conditions: concentration not given here
Chain of Histamine H1 receptor (P35367 whole entry): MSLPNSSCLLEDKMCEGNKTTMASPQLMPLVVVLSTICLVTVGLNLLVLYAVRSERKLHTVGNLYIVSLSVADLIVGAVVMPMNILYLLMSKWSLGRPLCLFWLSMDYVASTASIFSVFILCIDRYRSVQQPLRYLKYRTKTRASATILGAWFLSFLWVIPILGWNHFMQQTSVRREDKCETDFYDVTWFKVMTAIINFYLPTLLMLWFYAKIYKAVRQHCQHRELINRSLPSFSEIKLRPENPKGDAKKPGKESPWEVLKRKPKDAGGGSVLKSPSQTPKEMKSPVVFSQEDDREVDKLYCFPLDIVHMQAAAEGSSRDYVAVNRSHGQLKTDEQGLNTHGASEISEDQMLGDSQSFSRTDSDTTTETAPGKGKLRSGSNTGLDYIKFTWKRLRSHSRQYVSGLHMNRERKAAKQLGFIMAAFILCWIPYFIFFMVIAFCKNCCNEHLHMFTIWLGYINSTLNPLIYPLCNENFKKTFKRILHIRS

[14] = Inhibition of human dopamine D4.2 receptor
[15] = molecular target: D(1A) dopamine receptor (Homo sapiens, UniProt P21728); experiment: Inhibition of dopamine D1 receptor (unknown origin) at 10 uM
Chain of D(1A) dopamine receptor (P21728 whole entry): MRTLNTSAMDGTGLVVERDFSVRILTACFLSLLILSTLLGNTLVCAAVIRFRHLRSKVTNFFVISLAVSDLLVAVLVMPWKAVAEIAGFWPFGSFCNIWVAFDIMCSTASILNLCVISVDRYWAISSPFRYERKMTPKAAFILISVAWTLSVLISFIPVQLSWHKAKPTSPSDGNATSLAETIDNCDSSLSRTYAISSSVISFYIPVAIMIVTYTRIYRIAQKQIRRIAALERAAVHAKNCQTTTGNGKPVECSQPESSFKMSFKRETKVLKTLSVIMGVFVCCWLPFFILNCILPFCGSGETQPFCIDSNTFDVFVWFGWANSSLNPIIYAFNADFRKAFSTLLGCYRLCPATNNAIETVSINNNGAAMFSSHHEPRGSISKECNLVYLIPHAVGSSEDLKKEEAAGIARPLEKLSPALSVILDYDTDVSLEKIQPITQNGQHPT

[16] = molecular target: Neuropeptide Y receptor type 2 (Homo sapiens) (UniProt P49146); experiment: Inhibition of NPY2 receptor (unknown origin); conditions: concentration not given here
Chain of Neuropeptide Y receptor type 2 (Homo sapiens) (P49146 whole entry): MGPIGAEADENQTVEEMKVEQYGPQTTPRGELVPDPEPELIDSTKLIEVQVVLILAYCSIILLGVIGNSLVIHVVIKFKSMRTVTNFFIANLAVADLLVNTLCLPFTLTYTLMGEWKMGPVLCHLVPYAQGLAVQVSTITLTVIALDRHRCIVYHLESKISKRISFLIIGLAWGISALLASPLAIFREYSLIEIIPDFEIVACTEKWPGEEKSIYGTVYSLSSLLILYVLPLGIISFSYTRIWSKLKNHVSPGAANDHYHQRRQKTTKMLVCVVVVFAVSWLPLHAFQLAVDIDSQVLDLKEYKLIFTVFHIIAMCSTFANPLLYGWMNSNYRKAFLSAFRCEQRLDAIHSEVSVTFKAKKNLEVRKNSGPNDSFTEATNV

[17] = Oral bioavailability in rat at 20 mg/kg; type: ADME, organism-based; conditions: in vivo
[18] = molecular target: T2, D(4) dopamine receptor (Homo sapiens, UniProt P21917); experiment: Inhibition of human dopamine D4 receptor
T2 sequence (P21917 whole entry): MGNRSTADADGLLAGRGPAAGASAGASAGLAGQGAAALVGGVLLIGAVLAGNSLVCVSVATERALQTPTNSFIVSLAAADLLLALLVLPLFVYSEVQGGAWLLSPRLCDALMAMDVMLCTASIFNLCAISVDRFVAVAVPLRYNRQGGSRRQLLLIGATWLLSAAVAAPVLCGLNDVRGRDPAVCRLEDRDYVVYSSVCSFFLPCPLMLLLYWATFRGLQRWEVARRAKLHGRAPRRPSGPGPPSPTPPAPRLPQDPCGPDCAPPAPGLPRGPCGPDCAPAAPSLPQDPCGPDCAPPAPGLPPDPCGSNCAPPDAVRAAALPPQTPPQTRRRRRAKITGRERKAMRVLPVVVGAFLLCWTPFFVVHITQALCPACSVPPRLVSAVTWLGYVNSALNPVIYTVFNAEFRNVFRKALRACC

[19] = molecular target: D(2) dopamine receptor (Homo sapiens, UniProt P14416); experiment: Inhibition of human dopamine D2 receptor
Chain of D(2) dopamine receptor (P14416 whole entry): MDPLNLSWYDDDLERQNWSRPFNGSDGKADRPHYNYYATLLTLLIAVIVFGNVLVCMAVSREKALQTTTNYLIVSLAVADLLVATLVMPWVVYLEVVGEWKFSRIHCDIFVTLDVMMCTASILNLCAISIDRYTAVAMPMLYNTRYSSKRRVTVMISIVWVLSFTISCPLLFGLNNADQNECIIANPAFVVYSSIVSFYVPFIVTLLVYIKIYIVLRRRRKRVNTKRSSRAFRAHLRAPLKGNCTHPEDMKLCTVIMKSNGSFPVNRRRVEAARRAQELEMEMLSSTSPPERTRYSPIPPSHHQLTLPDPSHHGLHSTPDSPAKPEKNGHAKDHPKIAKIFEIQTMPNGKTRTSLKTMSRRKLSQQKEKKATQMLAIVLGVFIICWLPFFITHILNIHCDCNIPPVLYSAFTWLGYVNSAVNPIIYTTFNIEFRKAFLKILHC

[20] = molecular target: T1, D(3) dopamine receptor; experiment: Inhibition of human dopamine D3 receptor

| SMILES | inhibition [1] [%] | inhibition [2] [%] | Ki [3] [nM] | inhibition [4] [%] | inhibition [5] [%] | inhibition [6] [%] | inhibition [7] [%] | inhibition [8] [%] | inhibition [9] [%] | Ki [10] [nM] | inhibition [11] [%] | inhibition [12] [%] | inhibition [13] [%] | Ki [14] [nM] | inhibition [15] [%] | inhibition [16] [%] | bioavailability [17] [%] | Ki [18] [nM] | Ki [19] [nM] | Ki [20] [nM] |
| --- | --- | --- | --- | --- | --- | --- | --- | --- | --- | --- | --- | --- | --- | --- | --- | --- | --- | --- | --- | --- |
| c1ccc(-c2nc(CN3CCN(c4ncccn4)CC3)c[nH]2)cc1 | < 50 | < 50 | 2.1 | < 50 | < 50 | < 50 | < 50 | < 50 | < 50 | 2.2 | < 50 | < 50 | < 50 | 4.2 | < 50 | < 50 | – | – | – | – |
| c1ccc(OCC2CN(Cc3c[nH]c4ccccc34)CCO2)cc1 (stereo not given) | – | – | – | – | – | – | – | – | – | – | – | – | – | – | – | – | > 40 | 5.6 | 400 | 1480 |
